Data taken from patent US5229398A, “Aminomethylpiperidine compounds” (Adir et Compagnie, priority 1990, dated 1993).
Where a name gives a salt, the structure may show the parent alone. Read-outs that look alike come from different tables or passages of the source.

Tests used:
5-HT1A receptors [1] = molecular target: T1, 5-HT1A receptors (Rattus norvegicus, UniProt P19327); parameters: The tests were carried out on tissue from the hippocampus of decapitated male Wistar rats; from tissue; host or cells: hippocampus membranes of male Wistar rats; details: reference ligand 8-OH-DPAT; cited from earlier work
T1 sequence (P19327 1-422): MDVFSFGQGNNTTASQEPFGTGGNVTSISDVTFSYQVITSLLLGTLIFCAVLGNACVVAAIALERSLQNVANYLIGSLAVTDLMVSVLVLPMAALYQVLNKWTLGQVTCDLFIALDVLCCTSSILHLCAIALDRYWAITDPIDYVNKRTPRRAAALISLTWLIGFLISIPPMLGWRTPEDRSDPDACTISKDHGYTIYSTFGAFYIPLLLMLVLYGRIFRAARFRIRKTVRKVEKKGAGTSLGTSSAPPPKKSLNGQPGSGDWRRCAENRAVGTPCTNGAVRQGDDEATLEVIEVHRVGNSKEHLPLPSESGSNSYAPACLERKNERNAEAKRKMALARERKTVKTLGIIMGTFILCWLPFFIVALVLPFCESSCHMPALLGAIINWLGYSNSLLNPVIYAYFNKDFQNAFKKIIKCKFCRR

5-HT1A receptors [2] = molecular target: T1, 5-HT1A receptors; parameters: from tissue; host or cells: whole rat in vivo; details: subcutaneous injection; cited from earlier work
5-HT1A receptors [3] = molecular target: T1, 5-HT1A receptors; test: In vivo test of "tail-flicks" (antagonism of 8-OH-DPAT-induced spontaneous tail movements); parameters: from tissue; host or cells: whole rat in vivo; details: subcutaneous injection; for ED50: sc, against subcutaneous 8-OH-DPAT, read-out: ED50, the amount which reduces the action of 8-OH-DPAT by 50%
Text: The potential of the compounds of the invention to act in vivo on the 5-HT1A receptors was brought out following a method perfected by Millan et al. (Neurosci. Lett., 1989, 107, 227-232). […] This model then was used to evaluate the potential of the compounds of the invention administered by subcutaneous injection, to interact with the 5-HT1A receptors in the rat. The ED50, that is the amount which reduces the action of 8-OH-DPAT by 50%, was thus determined.

5-HT1A receptors [4] = molecular target: T1, 5-HT1A receptors; test: Affinity for 5-HT1A receptors in vitro ([3H]-8-OH-DPAT binding, rat hippocampus membranes); parameters: from tissue; host or cells: hippocampus membranes of male Wistar rats; species or system male Wistar rats
Experimental: The tests were carried out on tissue from the hippocampus of decapitated male Wistar rats. The rats were sacrificed 48 hours before the experiment and the isolated tissues were preserved at -86° C.
In order to prepare the membranes, the tissues were homogenized at 0° C. in 20 volumes of 50 mM Tris HCl buffer solution (pH 7.7, adjusted with 5N HCl at 25° C.), with a Polytron homogenizer for 6 seconds. The whole was then centrifuged (35,000 g for 20 minutes at 4° C.). Homogenization followed by centrifugation was repeated a second time under the same conditions. The pellet thus obtained was suspended for a final time in 20 volumes of the above buffer, incubated for 15 minutes at 37° C., then again centrifuged. […]
The compounds to be tested were put into solution in the incubation buffer. Test solutions were prepared by placing in 12×75 mm glass tubes, 10 μl of the solution of the compounds to be tested, 100 μl of a solution containing […] of [^3 H]-8-OH-DPAT (specific radioactivity 205 Ci/mmol). Non-specific binding was determined with the aid of a solution of 5-hydroxytryptamine (10 μM), and represented 5 to 10% of the final binding. […] Radioactivity was then determined with the aid of external standards.
The pKi values were determined by the CheungPrusoff equation: [formula]

SMILES: CCCN(CCC)C1CCc2cccc(O)c2C1 (stereo not drawn) [Example 8-OH-DPAT, 8-hydroxy-2-(dipropylamino)tetraline]
- affinity for the 5-HT1A sites of the reference (in words) (5-HT1A receptors [1]): very great affinity
- selectivity for the 5-HT1A sites of the reference (in words) (5-HT1A receptors [1]): great selectivity
- induction of spontaneous movements of the tail (in words) (5-HT1A receptors [2]): marked spontaneous movements of the tail

SMILES: COc1cccc2c1OC(CNCC1CCN(c3nc4ccccc4s3)CC1)CO2 (stereo not drawn) [Example 16, 1-(BENZOTHIAZOL-2-YL)-4-[(8-METHOXY-1,4-BENZODIOXAN-2-YL)-METHYLAMINOMETHYL]PIPERIDINE DIHYDROCHLORIDE]
- ED50 (5-HT1A receptors [3]): 0.31 mg/kg
- properties towards the 5-HT1A receptors (in words) (5-HT1A receptors [3]): antagonist properties
- Ki (5-HT1A receptors [4]): 0.501 nM

SMILES: COc1ccccc1OCCNCC1CCN(c2nc3ccccc3o2)CC1.Cl.Cl [Example 44, 1-(BENZOXAZOL-2-YL)-4-[[2-(2-METHOXYPHENOXY)ETHYL]AMINOMETHYL]PIPERIDINE DIHYDROCHLORIDE]
- ED50 (5-HT1A receptors [3]): 0.31 mg/kg
- properties towards the 5-HT1A receptors (in words) (5-HT1A receptors [3]): antagonist properties
- Ki (5-HT1A receptors [4]; rat hippocampus, [3H]-8-OH-DPAT, 30 minutes at 37° C., pKi by CheungPrusoff equation, read-out: pKi (converted)): 1 nM
